Key:
[1] = test system: dopamine transporter (DAT) in striatum; assay: Subacute MPTP model, [125I]PE2I dopamine transporter binding in striatum sections; assay type: in vivo; settings: mouse
Protocol: Groups 1-7 were treated in the following manner: Group 1: Untreated control; Group 2: Control group treated with the excipient solution for Rotigotine and MPTP; Group 3: MPTP treatment; Group 4: MPTP treatment plus Rotigotine 0.3 mg/kg; Group 5: MPTP treatment plus Rotigotine 1.0 mg/kg; Group 6: MPTP treatment plus Rotigotine 3.0 mg/kg; Group 7: Treatment only with Rotigotine (3.0 mg/kg)
For intoxication, mice are administered 80 mg/kg of the neurotoxin 1-methyl-4-phenyl-1,2,3,6-tetrahydro-pyridine (MPTP) (in portions of 20 mg/kg at two-hour intervals, Group 3-6 in FIGS. 1 and 2), leading to a degeneration of the neurons of the substantia nigra of about 50-60% (maximum degeneration in Group 3 in FIGS. 1 and 2). Rotigotine is administered daily in doses of 0.3, 1, or 3 mg/kg each for 7 days in the so-called ‘Slow-Release-Formulation’ (see Working Example 2) (Group 4-6 in FIGS. 1 and 2). A group of MPTP treated animals (Group 3) is given Rotigotine excipient solution (see Working Example 2 without Rotigotine HCl) and serves as reference. […] PE2I ([^125I]-(E)-N(3-iodoprop-2-enyl)-2β-carboxymethyl-3β-(4′-methylphenyl)-nortropane) in phosphate buffer, pH 7.4, in order to mark the quantity of the still present dopamin transporter in striatum and thereby to indicate the quantity of functioning nerve ends.

Parkinson patients = settings: cited from earlier work
[2] = test system: MPTP-treated (macaque) monkeys; assay: Progressive MPTP primate model (pilot study); assay type: in vivo
Protocol: In the model used, which reflects the progressive course of the Parkinson's disease on primates, subliminal toxic doses of MPTP were injected in (macaque) monkeys for several days. The Parkinson symptoms developed in the model in a period of about 2 weeks. As soon as a certain degree of damage was reached, Rotigotine was injected daily in a formulation that built up a continuous plasma level for 24 h. The MPTP injections were stopped as soon as the motor activity was reduced by a certain degree (approx. 5 days later). The behavior of the animals was assessed on a daily basis.
At the end of the Rotigotine injection or washout phase, a group each of animals was killed and the condition of the basal ganglion was examined histologically and biochemically.

[3] = test system: neurons of the substantia nigra; assay: Acute MPTP model (including apoptosis), FluoroJade stain of degenerating neurons; assay type: in vivo; settings: mouse; for Number of degenerating neurons: FluoroJade stain
Protocol: About 16 hours before, Rotigotine is administered in doses of 0.3, 1 or 3 mg/kg each as the so-called ‘Slow-Release-Formulation’. […] After 24 hours the animals are killed and the brains fixed. The brain sections are stained with FluoroJade for identification of degenerated cells. The immunohistochemical marking of tyrosine-hydroxylase served the purpose of identification of dopaminergic neurons.

Parkinson models = settings: in vivo; cited from earlier work

Compound | Survival of the neurons and their nerve ends (dopamine transporter quantity in striatum) ([1]; MPTP 80 mg/kg, Rotigotine 0.3, 1 or 3 mg/kg daily for 7 days, Slow-Release-Formulation) | Dopaminergic innervation of the striatum (dopamine transporter density) ([1]; subacute phase after MPTP) | Dyskinesias (Parkinson-associated motor function disorders) (Parkinson patients; patients with prominent dyskinesias, Metman et al 2001) | UPDRS (Unified Parkinson's Disease Rating Scale) score (Parkinson patients; transdermal administration to Parkinson patients, WO 02/089777) | Content of pre-pro-enkephalin ([2]; basal ganglion, after the treatment and the washout phase) | Motor activity of the animals ([2]; daily Rotigotine injection, during the treatment and in the following washout phase) | Density of the nerve endings in the striatum ([2]; end of Rotigotine injection or washout phase, compared to untreated animals) | Number of degenerating neurons ([3]; MPTP excipient + Rotigotine 3.0 mg/kg (Rotigotine alone)) | Number of degenerating neurons ([3]; MPTP intoxication + Rotigotine 0.3 mg/kg) | Number of degenerating neurons ([3]; MPTP intoxication + Rotigotine 1.0 mg/kg) | Number of degenerating neurons ([3]; MPTP intoxication + Rotigotine 3.0 mg/kg) | Staining of tyrosine hydroxylase, treated versus untreated animals ([3]; acute MPTP model, 24 hours after MPTP, immunohistochemistry) | Decrease in the number of degenerated neurons after application of Rotigotine ([3]; acute MPTP model, FluoroJade, versus MPTP alone) | Number of degenerating neurons in the mesencephalon ([3]; acute phase after MPTP) | Activity in Parkinson models (Parkinson models)
CCCN(CCc1cccs1)C1CCc2c(O)cccc2C1 (single isomer, unassigned; (-)) [Rotigotine, (−)-5,6,7,8-Tetrahydro-6-[propyl[2-(2-thienyl)ethyl]amino]-1-naphthol] | improves the survival of the neurons and their nerve ends in dependence of the dosage | almost completely preserved or restored | improved | improvement | tendency toward normalization | clearly improved | significantly increased | 3.8 | 66.7 | 76.8 | 34.9 | does not show any difference | about 50% | reduced | –
CCCN(CCc1cccs1)[C@@H]1CCc2c(O)cccc2C1 [(R)-enantiomer] | – | – | – | – | – | – | – | – | – | – | – | – | – | – | inactive

Reference: US20050197385A1, “Use of rotigotine for treatment or prevention of dopaminergic neuron loss” (Schwarz Pharma AG, priority 2004, published 2005)
